The values that follow come from PubChem BioAssay (NCI).

A word on the TGI: it is the concentration giving total growth inhibition. In general, GI50 refers to the concentration that inhibits growth by half.

Some test systems named below: NCI-H23 lung; M14 melanoma; U251 CNS; HT29 colon; SNB-19 CNS; KM12 colon; SK-MEL-2 melanoma; MALME-3M melanoma; LOX IMVI melanoma; UACC-62 melanoma.
Common to all, as to assay: DTP human tumour cell line panel, 48 h

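These data come from cells grown in 96-well plates and exposed to compound for 48 hours at five concentrations. Abbreviation: GI50, concentration required for 50% inhibition of growth. TGI marks complete inhibition of growth.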

Consider `O=C(NCCN1CCCCC1)c1ccc(Br)cc1`, for which the TGI in the assay on NCI-H23 lung, in the assay on M14 melanoma, in the assay with U251 CNS, in the assay with HT29 colon, in the assay with SNB-19 CNS and with KM12 colon was more than 100 µM in each case. Also, the TGI with SK-MEL-2 melanoma, with MALME-3M melanoma and with LOX IMVI melanoma was more than 100 µM each time.
On to `CC1=NN(c2nc(N)nc(NS(=O)(=O)c3cc(C)c(Cl)cc3S)n2)C(C)(C)C1`, for which the TGI in the assay on NCI-H23 lung, in the assay with M14 melanoma, in the assay with U251 CNS, in the assay with HT29 colon, in the assay on SNB-19 CNS and in the assay on KM12 colon was more than 10 µM throughout. Also, the TGI with SK-MEL-2 melanoma, in the assay on MALME-3M melanoma and with LOX IMVI melanoma was more than 10 µM each time.
Take `FC(F)(F)c1ccccc1C1SCC2=Nc3ccccc3CN21` (stereo unspecified): the TGI with UACC-62 melanoma was 26.1 µM; in the assay on NCI-H23 lung it was 26.6 µM; with M14 melanoma, 24.6 µM; in the assay on U251 CNS, more than 100 µM; in the assay with HT29 colon it was 30 µM; with SNB-19 CNS, 26.3 µM. The TGI with KM12 colon turned out to be 25.5 µM; in the assay with LOX IMVI melanoma, 28.4 µM.
As for `COc1ccc2[nH]c3c(c2c1)[C@H](c1ccccc1)C[C@@H]1C(=O)N(c2ccccc2)C(=O)[C@H]31`, the TGI with UACC-62 melanoma was more than 100 µM; in the assay with M14 melanoma, more than 100 µM; in the assay on U251 CNS, 38.3 µM; with SNB-19 CNS, more than 100 µM; with KM12 colon, 43.6 µM; in the assay with SK-MEL-2 melanoma it was more than 100 µM. The TGI in the assay with MALME-3M melanoma and in the assay on LOX IMVI melanoma was more than 100 µM in each case.
For `Cc1ccc(S(=O)c2cccs2)cc1` (stereo unspecified), the TGI in the assay with NCI-H23 lung, with M14 melanoma, in the assay on U251 CNS, in the assay on HT29 colon, with SNB-19 CNS and in the assay with KM12 colon was more than 100 µM in each case. This compound also gave a TGI in the assay with MALME-3M melanoma of more than 100 µM.
For `COC(=O)C1(NC(=O)C(Cc2ccccc2)N(C(=O)OC(C)(C)C)C(=O)OC(C)(C)C)CCCC1` (stereo unspecified), the total growth inhibition concentration (TGI) in the assay on UACC-62 melanoma, with NCI-H23 lung, with M14 melanoma, with U251 CNS, with SNB-19 CNS and with SK-MEL-2 melanoma was more than 100 µM each time. For the same compound, the TGI with LOX IMVI melanoma was more than 100 µM.
As for `COc1nc(N=P(c2ccccc2)(c2ccccc2)c2ccccc2)cc(=O)n1C`, the TGI in the assay on UACC-62 melanoma, in the assay with NCI-H23 lung, in the assay with M14 melanoma, with U251 CNS, with HT29 colon and in the assay with SNB-19 CNS was more than 100 µM each time. The TGI in the assay on KM12 colon, in the assay with SK-MEL-2 melanoma and with LOX IMVI melanoma was more than 100 µM each time.
In the case of `Cc1ccc(C(=O)CC2(O)C(=O)Nc3c(C)cc(Cl)cc32)cc1` (stereo unspecified), the total growth inhibition concentration (TGI) in the assay on NCI-H23 lung, with M14 melanoma, with U251 CNS, in the assay on HT29 colon, in the assay on SNB-19 CNS and in the assay on KM12 colon was more than 100 µM each time. The TGI in the assay on SK-MEL-2 melanoma, in the assay on MALME-3M melanoma and with LOX IMVI melanoma was more than 100 µM each time.
Take `O=C1[C@@H]2C(c3ccc(Br)cc3)=NO[C@@H]2C(=O)N1c1ccc(Cc2ccc(N3C(=O)[C@H]4C(c5ccc(Br)cc5)=NO[C@H]4C3=O)cc2)cc1`: the GI50 in the assay on UACC-62 melanoma, with M14 melanoma, in the assay on HT29 colon, in the assay on SK-MEL-2 melanoma and in the assay with MALME-3M melanoma was more than 40 µM throughout. Besides, the TGI was more than 40 µM in the assay on UACC-62 melanoma; more than 3.48 µM with NCI-H23 lung; more than 40 µM in the assay on M14 melanoma; more than 3.48 µM in the assay on U251 CNS; more than 40 µM in the assay on HT29 colon; more than 3.48 µM with SNB-19 CNS. The TGI was more than 3.48 µM in the assay with KM12 colon, more than 40 µM in the assay with SK-MEL-2 melanoma and more than 40 µM in the assay with MALME-3M melanoma.
Turning to `CCOC(=O)N/N=C(/N)c1cccc(Br)c1`, the TGI in the assay on UACC-62 melanoma, with NCI-H23 lung, with M14 melanoma, in the assay with HT29 colon, in the assay on SNB-19 CNS and in the assay on KM12 colon was more than 100 µM throughout. Besides, the TGI in the assay on SK-MEL-2 melanoma, in the assay on MALME-3M melanoma and in the assay with LOX IMVI melanoma was more than 100 µM each time.
For `O=C/C(=C1/C=Cc2cc([N+](=O)[O-])ccc2S1)c1ccccc1`, the TGI with NCI-H23 lung, in the assay with M14 melanoma, in the assay on U251 CNS, in the assay with HT29 colon, with SNB-19 CNS and in the assay on SK-MEL-2 melanoma was more than 100 µM each time. Also, the TGI with MALME-3M melanoma and in the assay with LOX IMVI melanoma was more than 100 µM each time.
Take `CO/C(N)=C(\C#N)N=Cc1ccc2ccccc2c1`: the TGI with UACC-62 melanoma, with NCI-H23 lung, in the assay on U251 CNS, in the assay on HT29 colon, in the assay on KM12 colon and with SK-MEL-2 melanoma was more than 100 µM each time. Further, the TGI in the assay on MALME-3M melanoma and with LOX IMVI melanoma was more than 100 µM each time.
As for `Clc1ccc(Nc2nnc(CNc3ccc(-c4nnc(Nc5ccc(Cl)cc5)s4)cc3)s2)cc1`, the TGI is 64.9 µM in the assay on UACC-62 melanoma; more than 100 µM in the assay with NCI-H23 lung; 58.4 µM with M14 melanoma; more than 100 µM with U251 CNS; 24.4 µM in the assay with HT29 colon; more than 100 µM in the assay on SNB-19 CNS. For the same compound, the total growth inhibition concentration (TGI) is 36.6 µM with KM12 colon, 67.6 µM in the assay on SK-MEL-2 melanoma and more than 100 µM in the assay on MALME-3M melanoma.
On to `CN(C)CCN(C)P12(Oc3ccccc3O1)Oc1c(Cl)c(Cl)c(Cl)c(Cl)c1O2`, for which the TGI with UACC-62 melanoma, with NCI-H23 lung, in the assay on M14 melanoma, in the assay on U251 CNS, in the assay with HT29 colon and in the assay on SNB-19 CNS was more than 100 µM throughout. Also, the TGI with MALME-3M melanoma and with LOX IMVI melanoma was more than 100 µM each time.
On to `COc1ccc(-n2c(CCC(=O)O)nc3c2C(=O)c2ccccc2C3=O)cc1`, for which the TGI in the assay on UACC-62 melanoma, in the assay with NCI-H23 lung, in the assay with M14 melanoma, with U251 CNS, in the assay with HT29 colon and in the assay with SNB-19 CNS was more than 100 µM in each case. Besides, the TGI in the assay with KM12 colon, in the assay on SK-MEL-2 melanoma and with LOX IMVI melanoma was more than 100 µM each time.
